The test system of one data set is Candida krusei ATCC 6258. Nature of the data set: In vitro antifungal broth microdilution test. In kind it is cell-based. The note with it: 35 °C, RPMI 1640 pH 7.0, CLSI M27-A2 (IC80 value); for MIC: Pichia kudriavzevii, ATCC6258. In general terms: In broth dilution the organism is exposed to a series of concentrations in liquid medium.
A short description of data set [1]: Lipophilicity determination by RP-HPLC (capacity factor k / log k). In kind it is physicochemical. The note with it: C18 column, isocratic MeOH 55.0% / H2O 45.0%. From the text: A Waters Alliance 2695 XE HPLC separation module and Waters Photodiode Array Detector 2996 (Waters Corp., Milford, MA, USA) were used. A Symmetry® C18 5 μm, 4.6 × 250 mm, Part No. WAT054275, (Waters Corp., Milford, MA, USA) chromatographic column was used. The HPLC separation process was monitored by Millennium32® Chromatography Manager Software, Waters 2004 (Waters Corp., Milford, MA, USA). A mixture of MeOH p.a. (55.0%) and H2O-HPLC– Mili-Q Grade (45.0%) was used as a mobile phase. The total flow of the column was 0.9 mL/min, injection 30 μL, column temperature 30 °C and sample temperature 10 °C. The detection wavelength 210 nm was chosen. The KI methanolic solution was used for the dead time (tD) determination. Retention times (tR) were measured in minutes.
The capacity factors k were calculated using the Millennium32® Chromatography Manager Software according to formula k = (tR - tD)/tD, where tR is the retention time of the solute, whereas tD denotes the dead time obtained via an unretained analyte. Log k, calculated from the capacity factor k, is used as the lipophilicity index converted to log P scale.

In another data set the test system is Candida glabrata 20/I. Nature of the data set: In vitro antifungal broth microdilution test. In kind it is cell-based. The note with it: 35 °C, RPMI 1640 pH 7.0, CLSI M27-A2 (IC80 value); for MIC: Nakaseomyces glabratus, 20/I.
Data set [2] concerns Candida albicans ATCC 44859. Briefly: In vitro antifungal broth microdilution test. In kind it is cell-based. The note with it: 35 °C, RPMI 1640 pH 7.0, CLSI M27-A2 (IC80 value); for MIC: Candida albicans, ATCC44859.
The test system of the next data set is Candida tropicalis 156. Briefly: In vitro antifungal broth microdilution test. The format is cell-based. The note with it: 35 °C, RPMI 1640 pH 7.0, CLSI M27-A2 (IC80 value); for MIC: Candida tropicalis, 156.
Data set [3] has as its system Trichophyton mentagrophytes 445. Nature of the data set: In vitro antifungal broth microdilution test. The format is cell-based.
The subject of a further data set is Absidia corymbifera 272. Nature of the data set: In vitro antifungal broth microdilution test. The format is cell-based. The note with it: 35 °C, RPMI 1640 pH 7.0, CLSI M38-A (IC50 value); for MIC: Lichtheimia corymbifera, 272.
Data set [4] relates to Trichosporon beigelii 1188. Briefly: In vitro antifungal broth microdilution test. The format is cell-based. How it is done: Fluconazole (FLU) was used as the standard of a clinically used antimycotic drug. The procedure was performed with twofold dilution of the compounds in RPMI 1640 (Sevapharma a.s., Prague, Czech Republic) buffered to pH 7.0 with 0.165 mol of 3-morpholino-propane-1-sulfonic acid (MOPS, Sigma, Germany). The final concentrations of the compounds ranged from 500 to 0.975 μmol/L. Drug–free controls were included. The MIC determination was performed according to the CLSI (formerly NCCLS) reference protocol M27-A2 for yeasts (IC80 value) and M38-A for moulds (IC50 value). […] The values of MICs were determined after 24 and 48 h of static incubation at 35 °C. For T. mentagrophytes, the final MICs were determined after 72 and 120 h of incubation.

The subject of data set [5] is Aspergillus fumigatus 231. Briefly: In vitro antifungal broth microdilution test. In kind it is cell-based. The note with it: 35 °C, RPMI 1640 pH 7.0, CLSI M38-A (IC50 value); for MIC: Aspergillus fumigatus, 231.
Data set [6] concerns photosynthetic electron transport (PET) in spinach chloroplasts. Briefly: Inhibition of photosynthetic electron transport (PET) in spinach chloroplasts, DCPIP photoreduction. The note with it: DCPIP as electron acceptor, phosphate buffer pH 7.2, read-out: PET reduction IC50. In kind it is biochemical, Spinacia oleracea L. Here is the method: Chloroplasts were prepared from spinach (Spinacia oleracea L.) according to Masarovicova and Kralova. The inhibition of photosynthetic electron transport (PET) in spinach chloroplasts was determined spectrophotometrically (Genesys 6, Thermo Scientific, USA) using an artificial electron acceptor 2,6-dichlorophenol-indophenol (DCIPP) according to Kralova et al. and the rate of photosynthetic electron transport was monitored as a photoreduction of DCPIP. The measurements were carried out in phosphate buffer (0.02 mol/L, pH 7.2) containing sucrose (0.4 mol/L), MgCl2 (0.005 mol/L) and NaCl (0.015 mol/L). The chlorophyll content was 30 mg/L in these experiments and the samples were irradiated (~100 W/m^2) from 10 cm distance with a halogen lamp (250 W) using a 4 cm water filter to prevent warming of the samples (suspension temperature 22 °C). The studied compounds were dissolved in DMSO due to their limited water solubility. […] The inhibitory efficiency of the studied compounds was expressed by IC50 values, i.e., by molar concentration of the compounds causing 50% decrease in the oxygen evolution rate relative to the untreated control.

[7] abbreviates: Trichophyton mentagrophytes, 445, 120 h, pH 7.
Setting [8] is: Trichophyton mentagrophytes, 445, 72h, RPMI 1640 pH 7.0, CLSI M38-A (IC50 value).
Where [9] appears, read: Trichosporon beigelii, 1188, 24h, 35 °C, RPMI 1640 pH 7.0, CLSI M27-A2 (IC80 value), read-out: MIC TB.
[10] abbreviates: Trichosporon beigelii, 1188, 48h, 35 °C, RPMI 1640 pH 7.0, CLSI M27-A2 (IC80 value), read-out: MIC TB.

≈ marks a conversion by molar mass, not a printed value. Read-outs that look alike come from different tables or passages of the source. Some results are limits rather than exact numbers.

The term MIC denotes the least concentration at which growth counts as inhibited. With `O=S(=O)(c1ccc(O)c2ncccc12)N1CCOCC1` [Compound 4, 5-(Morpholine-4-sulfonyl)quinolin-8-ol], the MIC is 250 µM (≈ 73.6 µg/mL) against Candida krusei ATCC 6258 (24h); 500 µM (≈ 147 µg/mL) against Candida krusei ATCC 6258 (48h); 500 µM (≈ 147 µg/mL) against Candida glabrata 20/I (24h); 500 µM (≈ 147 µg/mL) in the data set on Candida glabrata 20/I (48h); 125 µM (≈ 36.8 µg/mL) in data set [2] (24h); 500 µM (≈ 147 µg/mL) in data set [2] (48h). Also, the MIC against Candida tropicalis 156 (24h) came out at 500 µM (≈ 147 µg/mL); against Candida tropicalis 156 (48h) it was 500 µM (≈ 147 µg/mL); in data set [3] (setting [7]), 250 µM (≈ 73.6 µg/mL); in data set [3] (setting [8]), 250 µM (≈ 73.6 µg/mL); against Absidia corymbifera 272 (24h), 125 µM (≈ 36.8 µg/mL); against Absidia corymbifera 272 (48h), 250 µM (≈ 73.6 µg/mL). Besides, the MIC in data set [4] (setting [9]), in data set [4] (setting [10]), in [5] (24h) and in data set [5] (48h) was 500 µM (≈ 147 µg/mL) throughout. The molecule also displayed a log k in data set [1] of 0.3293.

One may read the IC50 as the concentration needed to halve the response being measured. `O=S(=O)(O)c1cc(Br)c(O)c2ncccc12` [Compound 3, 7-Bromo-8-hydroxyquinoline-5-sulfonic acid]: the minimum inhibitory concentration (MIC) was 3.9 µM (≈ 1.19 µg/mL) against Candida krusei ATCC 6258 (24h); 3.9 µM (≈ 1.19 µg/mL) against Candida krusei ATCC 6258 (48h); 1.95 µM (≈ 0.593 µg/mL) in the data set on Candida glabrata 20/I (24h); 3.9 µM (≈ 1.19 µg/mL) against Candida glabrata 20/I (48h); 0.77 µM (≈ 0.234 µg/mL) in data set [2] (24h); 1.95 µM (≈ 0.593 µg/mL) in data set [2] (48h). The MIC in the data set on Candida tropicalis 156 (24h) was 1.95 µM (≈ 0.593 µg/mL); in the data set with Candida tropicalis 156 (48h), 3.9 µM (≈ 1.19 µg/mL); in data set [3] (setting [7]), 1.95 µM (≈ 0.593 µg/mL); in data set [3] (setting [8]), 1.95 µM (≈ 0.593 µg/mL); in the data set with Absidia corymbifera 272 (24h), 7.8 µM (≈ 2.37 µg/mL); against Absidia corymbifera 272 (48h), 7.8 µM (≈ 2.37 µg/mL). Also, the MIC was found to be 3.9 µM (≈ 1.19 µg/mL) in data set [4] (Trichosporon beigelii, 1188, 24 h, pH 7, read-out: MIC TB); 3.9 µM (≈ 1.19 µg/mL) in data set [4] (setting [10]); 0.77 µM (≈ 0.234 µg/mL) in data set [5] (24h); 1.95 µM (≈ 0.593 µg/mL) in data set [5] (48h). This molecule also showed a log k in [1] of 0.3786. Moreover, the IC50 in data set [6] was 33.5 µM.

Consider “8-Hydroxyquinoline-5-sulfonic acid isobutylamide [Compound 5]”, for which the “MIC CK” value against Candida krusei ATCC 6258 (24h) and in the data set with Candida krusei ATCC 6258 (48h) was 250 µM throughout. Moreover, the log k in data set [1] stood at 0.3373. For the same molecule, the “MIC CG” value against Candida glabrata 20/I (24h) worked out at 125 µM; in the data set with Candida glabrata 20/I (48h) it was 250 µM. Besides, the figures for the “MIC CA” value in [2] (24h) and in data set [2] (48h) were 125 µM and 250 µM, respectively. The “MIC CT” value with Candida tropicalis 156 (24h) and against Candida tropicalis 156 (48h) was 250 µM in each case. Moreover, the “MIC TM” value in [3] (72h, RPMI 1640 pH 7.0, CLSI M38-A (IC50 value)) is 62.50 µM; in data set [3] (120h, RPMI 1640 pH 7.0, CLSI M38-A (IC50 value)), 125 µM. Further, in data set [6], the IC50 stood at 54.4 µM. Besides, the “MIC AC” value in the data set with Absidia corymbifera 272 (24h) and against Absidia corymbifera 272 (48h) was 125 µM throughout. The “MIC TB” value in [4] (24h, 35 °C, RPMI 1640 pH 7.0, CLSI M27-A2 (IC80 value)) amounted to 250 µM; in [4] (48h, 35 °C, RPMI 1640 pH 7.0, CLSI M27-A2 (IC80 value)), 500 µM. The “MIC AF” value in [5] (24h) and in [5] (48h) was 250 µM throughout.

With `O=S(=O)(NCCc1ccccc1)c1ccc(O)c2ncccc12` [Compound 6, 8-Hydroxyquinoline-5-sulfonic acid (2-phenylethyl)amide], the MIC (against Candida krusei ATCC 6258 (24h); against Candida krusei ATCC 6258 (48h); against Candida glabrata 20/I (24h); with Candida glabrata 20/I (48h); in data set [2] (24h); in data set [2] (48h)) was 125 µM (≈ 41 µg/mL) throughout. The MIC (in the data set on Candida tropicalis 156 (24h); with Candida tropicalis 156 (48h); in [3] (setting [7]); in data set [3] (setting [8]); with Absidia corymbifera 272 (24h); in the data set on Absidia corymbifera 272 (48h)) was 125 µM (≈ 41 µg/mL) throughout. The MIC in [4] (setting [9]), in data set [4] (setting [10]), in data set [5] (24h) and in data set [5] (48h) was 125 µM (≈ 41 µg/mL) in each case. In data set [1], the log k is on record as 0.3349. For the same molecule, in [6], the IC50 is 304 µM.

Consider `Oc1ccccc1C=Cc1ccc2c(Cl)cc(Cl)c(O)c2n1` [Compound 9, 5,7-Dichloro-2-[2-(2-hydroxyphenyl)vinyl]quinolin-8-ol], for which the log k in data set [1] was 1.5854.

Take `O=[N+]([O-])c1cc(S(=O)(=O)O)c2cccnc2c1O` [Compound 2, 8-Hydroxy-7-nitroquinoline-5-sulfonic acid]: the MIC (against Candida krusei ATCC 6258 (24h); against Candida krusei ATCC 6258 (48h); in the data set with Candida glabrata 20/I (24h); in the data set on Candida glabrata 20/I (48h); in [2] (24h); in data set [2] (48h)) was above 250 µM throughout. Moreover, the MIC (against Candida tropicalis 156 (24h); against Candida tropicalis 156 (48h); in data set [3] (setting [7]); in [3] (setting [8]); against Absidia corymbifera 272 (24h); in the data set on Absidia corymbifera 272 (48h)) was above 250 µM each time. Besides, the MIC in [4] (setting [9]), in data set [4] (setting [10]), in data set [5] (24h) and in data set [5] (48h) was above 250 µM throughout. In data set [1], this molecule came in with a log k of 0.1479.

With `OC(Cn1cncn1)(Cn1cncn1)c1ccc(F)cc1F` [FLU, fluconazole, reference compound], the MIC in the data set with Candida krusei ATCC 6258 (24h) was 3.91 µM (≈ 1.2 µg/mL); with Candida krusei ATCC 6258 (48h), 15.6 µM (≈ 4.78 µg/mL); against Candida glabrata 20/I (24h), 0.98 µM (≈ 0.3 µg/mL); in the data set on Candida glabrata 20/I (48h), 3.91 µM (≈ 1.2 µg/mL); in data set [2] (24h), 0.06 µM (≈ 0.0184 µg/mL); in data set [2] (48h), 0.12 µM (≈ 0.0368 µg/mL). Besides, the MIC against Candida tropicalis 156 (24h) is 0.12 µM (≈ 0.0368 µg/mL); in the data set with Candida tropicalis 156 (48h) it was above 125 µM; in [3] (setting [7]), 3.91 µM (≈ 1.2 µg/mL); in data set [3] (setting [8]), 1.95 µM (≈ 0.597 µg/mL); against Absidia corymbifera 272 (24h), above 125 µM; against Absidia corymbifera 272 (48h), above 125 µM. The minimal inhibitory concentration (MIC) in data set [4] (setting [9]) is 0.24 µM (≈ 0.0735 µg/mL); in data set [4] (setting [10]), 0.48 µM (≈ 0.147 µg/mL); in data set [5] (24h), above 125 µM; in data set [5] (48h) it was above 125 µM.

The record behind these values is PMC6256987, “Investigating the Activity Spectrum for Ring-Substituted 8-Hydroxyquinolines” (Molecules, 2010).
